# According to ChEMBL document CHEMBL4304757, “Synthetic heterocyclic candidates as promising α-glucosidase inhibitors: An overview” (Eur J Med Chem, 2019):
# How the values were obtained:
# Alpha glucosidase [1] = biological target: T1, Alpha glucosidase (Homo sapiens, UniProt O43451+P10253+P14410+Q2M2H8); experiment: Inhibition of alpha-glucosidase (unknown origin) using p-nitrophenyl-alpha-d-glucopyranoside as substrate preincubated for 5 mins followed by substrate addition measured after 30 mins; type: protein assay
# MDA-MB-231 = experiment: Cytotoxicity against human MDA-MB-231 cells assessed as reduction in cell viability at 100 uM relative to control; type: functional, cell-based
# [2] = Inhibition of yeast alpha-glucosidase using p-nitrophenyl-alpha-d-glucopyranoside as substrate preincubated for 15 mins followed by substrate addition measured after 30 mins; parameters: species or system Saccharomyces cerevisiae
# Alpha glucosidase [3] = biological target: T1, Alpha glucosidase; experiment: Inhibition of alpha-glucosidase (unknown origin) using p-nitrophenyl-alpha-d-glucopyranoside as substrate preincubated for 10 mins followed by substrate addition measured after 20 mins; type: protein assay
# [4] = Inhibition of yeast alpha-glucosidase using p-nitrophenyl-alpha-d-glucopyranoside as substrate preincubated for 15 mins followed by substrate addition measured after 20 mins; parameters: species or system Saccharomyces cerevisiae
# Alpha glucosidase [5] = biological target: T1, Alpha glucosidase; experiment: Inhibition of alpha-glucosidase (unknown origin) using p-nitro phenyl glucopyranoside as substrate preincubated for 10 mins followed by substrate addition measured after 10 mins; type: protein assay
# [6] = Inhibition of yeast alpha-glucosidase using p-nitrophenyl-alpha-d-glucopyranoside as substrate preincubated with enzyme followed by substrate addition measured after 30 mins; parameters: species or system Saccharomyces cerevisiae
# Alpha glucosidase [7] = biological target: T1, Alpha glucosidase; experiment: Inhibition of alpha-glucosidase (unknown origin) using p-nitro phenyl glucopyranoside as substrate preincubated for 10 mins followed by substrate addition measured after 30 mins; type: protein assay
smiles,measurement,setting,value
COc1cccc(N2C(=O)/C(=C/c3ccc(F)cc3)S/C2=N\NC(=O)c2cc3ccccc3oc2=O)c1,IC50,Alpha glucosidase [1],0.09 to 1.6 µM
same,Activity,MDA-MB-231,>=76%
c1ccc2c(c1)c1ccccc1n2Cc1cn(Cc2ccc(Cn3cc(Cn4c5ccccc5c5ccccc54)nn3)cc2)nn1,IC50,[2],3.6 µM
Nc1c(C(c2ccccc2)c2c(N)c3ccccc3oc2=O)c(=O)oc2ccccc12,IC50,Alpha glucosidase [3],20 to 180 µM
Oc1ccc(-c2nc3ccc(N4CCOCC4)cc3[nH]2)cc1O,IC50,[4],3.4 to 20 µM
c1ccc2c(c1)c1ccccc1n2Cc1cn(Cc2ccc(-c3ccc(Cn4cc(Cn5c6ccccc6c6ccccc65)nn4)cc3)cc2)nn1,IC50,[2],73 µM
COc1ccc(N2C(=O)/C(=C/c3ccc(F)cc3)S/C2=N\NC(=O)c2cc3ccccc3oc2=O)cc1,IC50,Alpha glucosidase [1],0.09 to 1.6 µM
same,Activity,MDA-MB-231,>=76%
O=C(O)CN1C(=O)S/C(=C/c2ccc(-n3ccc4c(Br)ccnc43)cc2)C1=O,IC50,Alpha glucosidase [5],0.55 to 35 µM
O=C(c1ccc(O)cc1)C1Cc2c(ccc3ccccc23)O1 (stereo not drawn),IC50,[2],6.5 µM
O=C(N/N=C1\S/C(=C\c2ccc(F)cc2)C(=O)N1c1ccc(Cl)cc1)c1cc2ccccc2oc1=O,IC50,Alpha glucosidase [1],0.09 to 1.6 µM
same,Activity,MDA-MB-231,>=76%
CN(C)c1ccc(-c2nc3ccc(N4CCOCC4)cc3[nH]2)cc1,IC50,[4],3.4 to 20 µM
CN1CCN(c2ccc3nc(-c4ccccn4)[nH]c3c2)CC1,IC50,[4],2.2 to 21 µM
Cc1cccc(C)c1N1C(=O)/C(=C/c2ccc(F)cc2)S/C1=N\NC(=O)c1cc2ccccc2oc1=O,IC50,Alpha glucosidase [1],0.09 to 1.6 µM
same,Activity,MDA-MB-231,>=76%
Cc1ccc(C)c(N2C(=O)/C(=C/c3ccc(F)cc3)S/C2=N\NC(=O)c2cc3ccccc3oc2=O)c1,IC50,Alpha glucosidase [1],> 100 µM
same,Activity,MDA-MB-231,>=76%
CC1=NN(c2ccccc2)C(=O)/C1=C/c1cn(-c2ccccc2)nc1-c1cc2ccccc2oc1=O,IC50,[6],2.1 to 289 µM
Cc1ccc(N2C(=O)/C(=C/c3ccc(F)cc3)S/C2=N\NC(=O)c2cc3ccccc3oc2=O)cc1,IC50,Alpha glucosidase [1],0.09 to 1.6 µM
same,Activity,MDA-MB-231,>=76%
Nc1c(C(c2cccc(Br)c2)c2c(N)c3ccccc3oc2=O)c(=O)oc2ccccc12,IC50,Alpha glucosidase [3],20 to 180 µM
COc1cc(C(c2c(N)c3ccccc3oc2=O)c2c(N)c3ccccc3oc2=O)cc(Br)c1O,IC50,Alpha glucosidase [3],20 to 180 µM
Cc1n[nH]c2c1C(c1ccc(Cl)cc1Cl)C(C#N)=C(N)O2 (stereo not drawn),IC50,[2],60 to 180 µM
CN1CCN(c2ccc3[nH]c(-c4ccc(O)cc4)nc3c2)CC1,IC50,[4],2.2 µM
CC1=NN(c2ccc([N+](=O)[O-])cc2)C(=O)/C1=C/c1cn(-c2ccccc2)nc1-c1cc2ccccc2oc1=O,IC50,[6],2.1 to 289 µM
O=C1NC(=O)/C(=C\c2ccc(-n3ccc4c(Nc5ccc(F)cc5)ccnc43)cc2)S1,IC50,Alpha glucosidase [5],0.55 to 35 µM
Cc1[nH]nc2c1C(c1ccccc1OCc1ccccc1)C(C#N)=C(N)O2 (stereo not drawn),IC50,[2],60 to 180 µM
CN1CCN(c2ccc3nc(-c4ccc(N(C)C)cc4)[nH]c3c2)CC1,IC50,[4],2.2 to 21 µM
c1ccc(-c2nc3ccc(N4CCOCC4)cc3[nH]2)nc1,IC50,[4],3.4 to 20 µM
CN1CCN(c2ccc3nc(-c4ccc(F)c(Br)c4)[nH]c3c2)CC1,IC50,[4],2.2 to 21 µM
O=C(N/N=C/c1cccc(F)c1)c1nc(-c2cc3ccccc3oc2=O)cs1,IC50,Alpha glucosidase [7],6.2 to 81 µM
O=C(N/N=C/c1cc(O)ccc1O)c1nc(-c2cc3ccccc3oc2=O)cs1,IC50,Alpha glucosidase [7],6.2 to 81 µM
Nc1c(C(c2ccc(O)cc2)c2c(N)c3ccccc3oc2=O)c(=O)oc2ccccc12,IC50,Alpha glucosidase [3],20 to 180 µM
Cc1cccc(N2C(=O)/C(=C/c3ccc(F)cc3)S/C2=N\NC(=O)c2cc3ccccc3oc2=O)c1,IC50,Alpha glucosidase [1],0.09 to 1.6 µM
same,Activity,MDA-MB-231,>=76%
COc1cc(C(c2c(N)c3ccccc3oc2=O)c2c(N)c3ccccc3oc2=O)cc(Cl)c1O,IC50,Alpha glucosidase [3],20 to 180 µM
CN1CCN(c2ccc3nc(-c4ccc(Cl)cc4)[nH]c3c2)CC1,IC50,[4],2.2 to 21 µM
CC[C@]1(O)C[C@H]2CN(CCc3c([nH]c4ccccc34)[C@@](C(=O)OC)(c3cc4c(cc3OC)N(C=O)[C@H]3[C@@](O)(C(=O)OC)[C@H](OC(C)=O)[C@]5(CC)C=CCN6CC[C@]43[C@@H]65)C2)C1 [VINCRISTINE],Activity,MDA-MB-231,74.5%
Cc1nccn1-c1ccc(/C=C2/SC(=O)NC2=O)cc1,IC50,Alpha glucosidase [5],0.55 to 35 µM
COc1ccc(/C=N/NC(=O)c2nc(-c3cc4ccccc4oc3=O)cs2)cc1,IC50,Alpha glucosidase [7],6.2 to 81 µM
c1cncc(Cn2cc(Cn3c4ccccc4c4ccccc43)nn2)c1,IC50,[2],0.8 µM
COc1ccccc1N1C(=O)/C(=C/c2ccc(F)cc2)S/C1=N\NC(=O)c1cc2ccccc2oc1=O,IC50,Alpha glucosidase [1],0.09 µM
same,Activity,MDA-MB-231,72.8%
CC1=NN(c2ccc([N+](=O)[O-])cc2)C(=O)/C1=C/c1cn(-c2ccccc2)nc1-c1cc2cc(Br)ccc2oc1=O,IC50,[6],2.1 µM
COc1cccc(C(c2c(N)c3ccccc3oc2=O)c2c(N)c3ccccc3oc2=O)c1,IC50,Alpha glucosidase [3],20 to 180 µM
O=C(Cn1cc(Cn2c3ccccc3c3ccccc32)nn1)c1ccc(O)c(Br)c1,IC50,[2],0.61 to 1 µM
CC1=NN(c2ccccc2)C(=O)/C1=C/c1cn(-c2ccccc2)nc1-c1cc2cc(Br)ccc2oc1=O,IC50,[6],2.1 to 289 µM
